The experiment concerns the target T1, human NLRP3 (Homo sapiens, UniProt Q96P20).
T1 construct: Human whole blood is drawn from healthy volunteers after obtaining written informed consent; from tissue; host or cells: human whole blood from healthy volunteers (heparin lithium tubes)
Briefly: Human whole blood (hWB) NLRP3 assay (IL-1β release after LPS priming and ATP activation). The class given is cell-based. To be noted: for IC50: human whole blood. The protocol:
Human Whole Blood (hWB) NLRP3 Assay
Human whole blood is drawn from healthy volunteers after obtaining written informed consent. Heparin lithium coated tubes are used to collect blood from volunteers. Blood samples are distributed on 96 well plates using 90 μl per well.
Priming procedure: Priming is performed by adding 5 μl of LPS (026:B6; Sigma L-2654) at a final concentration of 1 μg/ml for 4.5 hours in a humidified incubator with 37° C., 5% CO2. Thirty minutes prior to NLRP3 activation, 5 μl of a 20× compound solution or vehicle (2% dimethylsulfoxide (DMSO)) is added to each well and plates were incubated on a shaker (450 rpm) in a humidified incubator with 37° C., 5% CO2.
Alternative priming procedure: Thirty minutes prior to LPS priming, 5 μl of a 20× compound solution or vehicle (2% dimethylsulfoxide (DMSO)) is added to each well and plates were incubated on a shaker (450 rpm) in a humidified incubator with 37° C., 5% CO2. Priming is performed by adding 5 μl of LPS (026:B6; Sigma L-2654) at a final concentration of 1 μg/ml for 5 hours in a humidified incubator with 37° C., 5% CO2.
Activation is then performed by adding 3.3 μl of a 31×ATP solution per well. At the end of the 30 minutes stimulation, the plates are centrifuged (800 g, 10 min, room temperature) and the plasma from each well is frozen at −80° C. […] levels in the supernatant were analyzed using a mesoscale discovery assay (MSD K151TUK) according to the manufacturers' instructions.
There is no detectable difference in assay IC50 results using the priming procedure versus the alternative priming procedure.
Data provided in Table C, below. hWB […] Assay: A represents an IC50 value <0.3 μM; B represents an IC50 value ≥0.3 μM and <0.5 μM; C represents an IC50 value ≥0.5 μM and <1.0 μM; D represents an IC50 value ≥1.0 μM and <10 μM; E represents an IC50 value ≥10 μM. Dashed (--) lines indicate no data available.

Where [1] appears, read: LPS 1 μg/ml priming, ATP activation, Table C, class symbols, read-out: hWB IL-1β IC50.
The mark [2] stands for this setting: numeric values of Tables D and E, read-out: hWB IL-1β IC50.

Where two headings read alike, the source gives them in different places.

T1 sequence (Q96P20 whole entry): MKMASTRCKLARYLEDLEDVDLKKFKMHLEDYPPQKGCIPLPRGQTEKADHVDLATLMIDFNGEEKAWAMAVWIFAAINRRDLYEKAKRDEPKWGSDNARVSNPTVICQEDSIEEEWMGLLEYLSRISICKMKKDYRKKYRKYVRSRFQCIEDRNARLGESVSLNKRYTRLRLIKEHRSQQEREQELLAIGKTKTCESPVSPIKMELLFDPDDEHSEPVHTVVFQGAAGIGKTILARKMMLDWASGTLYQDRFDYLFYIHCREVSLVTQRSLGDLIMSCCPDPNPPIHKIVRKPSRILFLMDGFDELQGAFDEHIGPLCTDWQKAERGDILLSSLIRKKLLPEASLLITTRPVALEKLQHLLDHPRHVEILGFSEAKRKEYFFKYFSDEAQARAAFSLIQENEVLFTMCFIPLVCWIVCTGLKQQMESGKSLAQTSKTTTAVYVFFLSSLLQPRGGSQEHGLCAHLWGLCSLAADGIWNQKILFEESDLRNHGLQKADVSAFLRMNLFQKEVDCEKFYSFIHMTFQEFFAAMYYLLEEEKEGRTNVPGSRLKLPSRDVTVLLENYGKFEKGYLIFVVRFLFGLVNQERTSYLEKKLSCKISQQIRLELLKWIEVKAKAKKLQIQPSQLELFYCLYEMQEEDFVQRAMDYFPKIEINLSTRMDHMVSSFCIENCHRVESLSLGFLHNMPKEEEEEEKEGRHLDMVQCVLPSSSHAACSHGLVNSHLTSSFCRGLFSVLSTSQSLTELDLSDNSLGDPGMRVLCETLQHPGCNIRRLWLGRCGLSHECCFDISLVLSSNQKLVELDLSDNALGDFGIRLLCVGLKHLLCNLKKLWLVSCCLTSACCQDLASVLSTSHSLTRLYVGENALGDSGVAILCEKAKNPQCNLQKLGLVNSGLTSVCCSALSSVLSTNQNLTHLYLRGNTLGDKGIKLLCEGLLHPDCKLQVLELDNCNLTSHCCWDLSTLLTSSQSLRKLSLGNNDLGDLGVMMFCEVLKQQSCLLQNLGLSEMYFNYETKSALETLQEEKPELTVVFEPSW

Regarding `C[C@H](CC(=O)O)CN1CC[C@H](N2C(=O)C(C)(C)c3c(F)c(C4CC4)cc(F)c32)C1=O` (single isomer, unassigned) [Compound 26D*], under setting [1], the IC50 is at least 10 µM.

Regarding `CC1(C)C(=O)N(c2ccnn(CCCC(=O)O)c2=O)c2c(F)cc(C3CC3)c(F)c21` [Compound 11, 4-(5-(5-cyclopropyl-4,7-difluoro-3,3-dimethyl-2-oxoindolin-1-yl)-6-oxopyridazin-1(6H)-yl)butanoic acid], the “fold improvement in activity compared to Compound 3 (hWB IL-1β IC50)” value (additional ring N atom versus Compound 3 with lactam ring N as sole N ring atom, Table E) is on record as 3-5 fold. Besides, the IC50 runs as follows: under setting [1], 0.5 to 1 µM; under setting [2], 0.61 µM.

Regarding `Cc1ccn(CCCC(=O)O)c(=O)c1N1C(=O)C(C)(C)c2c(F)c(C3CC3)cc(F)c21` (single isomer, unassigned) [Compound 4A*, (Sa)-4-(3-(5-cyclopropyl-4,7-difluoro-3,3-dimethyl-2-oxoindolin-1-yl)-4-methyl-2-oxopyridin-1(2H)-yl)butanoic acid], the IC50 under setting [1] is at least 10 µM.

Regarding `C[C@H](CCC(=O)O)N1CC[C@@H](N2C(=O)C(C)(C)c3c(F)c(C4CC4)cc(F)c32)C1=O` (single isomer, unassigned) [Compound 24D*], the concentration for half-maximal inhibition (IC50) under setting [1] lay in the range of 1 to 10 µM.

For the compound `CC1(C)C(=O)N([C@H]2CCN(CCCC(=O)O)C2=O)c2ccc(C3CC3)c(F)c21` (stereo in doubt) [Compound 18B*, (S)-4-(3-(5-cyclopropyl-4-fluoro-3,3-dimethyl-2-oxoindolin-1-yl)-2-oxopyrrolidin-1-yl)butanoic acid], the IC50 by setting is: under setting [1], at least 10 µM; (class symbol printed beside the numeric value in Tables D and E, read-out: hWB IL-1β IC50 activity class) at least 10 µM; under setting [2], above 500 µM.

As for `CC1(C)C(=O)N([C@@H]2CCN(CCCC(=O)O)C2=O)c2c(F)cc(Cl)c(F)c21` (stereo in doubt) [Compound 23A, (R)-4-(3-(5-chloro-4,7-difluoro-3,3-dimethyl-2-oxoindolin-1-yl)-2-oxopyrrolidin-1-yl)butanoic acid], the IC50 under setting [1] is 1 to 10 µM.

Take `CC1(C)C(=O)N([C@@H]2CCN(CCCC(=O)O)C2=O)c2c(F)cc(C3CC3)cc21` (stereo in doubt) [Compound 22A*, (R)-4-(3-(5-cyclopropyl-7-fluoro-3,3-dimethyl-2-oxoindolin-1-yl)-2-oxopyrrolidin-1-yl)butanoic acid]: under setting [1], the IC50 is below 0.3 µM. Moreover, the “hWB NLRP3 inhibitory activity compared to the (S)-isomer” value (isomer comparison, in words) is “more active isomer”.

Turning to `CC1(C)C(=O)N(c2cccn(CCCC(=O)O)c2=O)c2c(F)cc(C3CC3)c(F)c21` [Compound 3, 4-(3-(5-cyclopropyl-4,7-difluoro-3,3-dimethyl-2-oxoindolin-1-yl)-2-oxopyridin-1(2H)-yl)butanoic acid], the IC50 reads like this: under setting [1], 1 to 10 µM; under setting [2], 1.9 µM.
